For data set [1], the system named is HIV-IIIb. Description: Test A: Antiviral Assay in MT4 Cells. Type of data set: cell-based, HIV-1. The following applies: for inhibition at 0.2 µM: 0.2 μM drug concentration. Put shortly: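 MT-4 cells were preinfected with HIV-IIIb […]. Cell viability, as protection from viral cytopathic effect, was read by CellTiter-Glo chemiluminescence.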
Data set [2] is described as follows: Test B: Cytotoxicity Assay. In kind it is cell-based. The following applies: human, uninfected MT-4 cells, CellTiter-Glo. How it is done:
Test B: Cytotoxicity Assay Compound cytotoxicity and the corresponding CC50 values was determined using the same protocol as described in the antiviral assay (Test A) except that uninfected cells were used.

Setting [3] is: Human immunodeficiency virus 1, MT4, 120 h, MT-4 cells infected with HIV-IIIb, 5 days, values normalized to 100%, average over time, read-out: % inhibition at 0.2 μM (percent inhibition of virus-induced cell killing).

A word on the inhibition: it is how much of the control response was suppressed. Broadly, the CC50 is the concentration at which the toxic effect on the cells reaches its halfway point. A high value points to better tolerance by the cells.

Like-named read-outs stand apart in the source and are kept apart here.

On to `Cn1nc(NS(C)(=O)=O)c2cccc(-c3ccc(C#CC4(O)CC(F)(F)C4)nc3[C@H](Cc3cc(F)cc(F)c3)NC(=O)Cn3nc(C(F)(F)F)c4c3C(F)(F)[C@@H]3C[C@H]43)c21` [Compound 105D], for which the inhibition at 0.2 µM in data set [1] (setting [3]) worked out at 88%. Besides, half-maximal cytotoxicity in data set [2] (CC50 at 5 days) was put at 6.46 µM.
Take `NC(=O)c1cc(-c2ccc(C#CC3(O)CC(F)(F)C3)nc2[C@H](Cc2cc(F)cc(F)c2)NC(=O)Cn2nc(C(F)F)c3c2C(F)(F)[C@@H]2C[C@H]32)ccc1F` [Compound 106C, 5-(6-((3,3-difluoro-1-hydroxycyclobutyl)ethynyl)-2-((S)-1-(2-((3bS,4aR)-3-(difluoromethyl)-5,5-difluoro-3b,4,4a,5-tetrahydro-1H-cyclopropa[3,4]cyclopenta[1,2-c]pyrazol-1-yl)acetamido)-2-(3,5-difluorophenyl)ethyl)pyridin-3-yl)-2-fluorobenzamide]: the inhibition at 0.2 µM in data set [1] (setting [3]) came to 100%. The compound also had a CC50 at 5 days in data set [2] of 2.85 µM.
For the compound `NC(=O)c1cc(-c2ccc(C#CC3(O)CC(F)(F)C3)nc2[C@H](Cc2cc(F)cc(F)c2)NC(=O)Cn2nc(C(F)(F)F)c3c2C(F)(F)[C@@H]2C[C@H]32)ccc1F` [Compound 107, 5-(6-((3,3-difluoro-1-hydroxycyclobutyl)ethynyl)-2-((S)-1-(2-((3bS,4aR)-5,5-difluoro-3-(trifluoromethyl)-3b,4,4a,5-tetrahydro-1H-cyclopropa[3,4]cyclopenta[1,2-c]pyrazol-1-yl)acetamido)-2-(3,5-difluorophenyl)ethyl)pyridin-3-yl)-2-fluorobenzamide], the inhibition at 0.2 µM in data set [1] (Human immunodeficiency virus 1, IIIB, MT4, comparison with previously published compounds, read-out: Response at 0.2 μM (percent inhibition of virus-induced cell killing)) worked out at 99%; in data set [1] (setting [3]), 99%. In addition, in data set [1] (Human immunodeficiency virus 1, IIIB, MT4, 2 μM drug concentration, comparison with previously published compounds, read-out: Response at 2 μM (percent inhibition of virus-induced cell killing)), the inhibition at 2 µM stood at 99%. The same compound had a CC50 at 5 days in data set [2] of 3.64 µM.
For `Cn1nc(O)c2c(Cl)ccc(-c3ccc(C#CC4(O)CCOCC4)nc3[C@H](Cc3cc(F)cc(F)c3)NC(=O)Cn3nc(C(F)F)c4c3C(F)(F)[C@@H]3C[C@H]43)c21` [Compound 109E, N—((S)-1-(3-(4-chloro-3-hydroxy-1-methyl-1H-indazol-7-yl)-6-((4-hydroxytetrahydro-2H-pyran-4-yl)ethynyl)pyridin-2-yl)-2-(3,5-difluorophenyl)ethyl)-2-((3bS,4aR)-3-(difluoromethyl)-5,5-difluoro-3b,4,4a,5-tetrahydro-1H-cyclopropa[3,4]cyclopenta[1,2-c]pyrazol-1-yl)acetamide], the inhibition at 0.2 µM in data set [1] (setting [3]) turned out to be 100%. The compound further had a CC50 at 5 days in data set [2] of 22.3 µM.

The values are drawn from patent US9873680B2 (Gilead Sciences, Inc., priority 2014, dated 2018).
